The test system of series [1] is Z-138 (mantle cell lymphoma). The experiment in a line: Antiproliferative activity, Z-138 cells (Alamar Blue). It is filed as cell-based. As to conditions: Homo sapiens, Table 10, 72 h, average of several tests. A digest of the protocol:
(§1)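 Readout: Alamar Blue fluorescence (540 nm excitation, 590 nm emission) after 14-16 h reagent incubation, following 72 h compound exposure at 37 °C. About 3*10^4 cells/well were grown in 10% FBS RPMI-1640. IC50 values were fitted by a four-parameter logistic model.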

A short description of series [2]: General cytotoxicity on HepG2 cells (CC50; therapeutic index CC50 HepG2/IC50 Mino). It counts as cell-based. The settings on record: human, HepG2 cells (hepatocellular carcinoma); Table 10; 72 hours, Alamar Blue; average of several tests. In a few lines: (§2)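 Alamar Blue viability after 72 h exposure to compounds (final 200 μM–4 μM) gave CC50; HepG2 plated 2*10^4/well in DMEM 24 h beforehand. Therapeutic index expressed as ratio of HepG2 CC50 to Mino antiproliferative IC50.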

The subject of series [3] is HepG2 cells (hepatocellular carcinoma). Described as above. The settings on record: Table 10; therapeutic index. It counts as cell-based. A digest of the protocol:
as §2

The test system of series [4] is Mino (mantle cell lymphoma). Briefly: Antiproliferative activity, Mino cells (Alamar Blue). It counts as cell-based. As to conditions: Homo sapiens, Table 10, 72 h, average of several tests. In a few lines: as §1
A short description of series [5]: Stability in human blood plasma. The settings on record: 10 μM in pooled human blood plasma, incubated 4 hours at 37° C.
Protocol: To assess the blood plasma stability of the drug candidates, we used pooled human blood plasma taken from ten healthy donors. The initial solution (10 Mm in DMSO) was diluted with pooled blood plasma to 10 μM (test solution). The test solution had been incubated for 4 hours in a dry block heater at 37° C. We determined peak areas of the compounds corresponding to the start of the test (before incubating) and the end of the test (after incubating in a dry block heater at 37° C.) by HPLC using Agilent1200 chromatograph (Agilent, USA) with preliminary protein precipitation with acetonitrile. We used gradient elution (1 mL/min flow rate). We determined amount of substance in the sample in % after incubation.
We evaluated the stability of the compounds.
Series [6] can be described thus: Permeability through the monolayer of Caco-2 cells. It is filed as in vitro ADME. As to conditions: human; for Papp A→B at 2 h, 10 μM / Papp B→A at 2 h, 10 μM: 2 h at 37° C.; for efflux ratio at 2 h, 10 μM: read-out: efflux (Papp B-A/Papp A-B). The source says:
Assessment of permeability through the monolayer of Caco-2 cells allows to evaluate the ability of the candidate compounds to penetrate through biological membranes by active and passive transport.
Caco-2, the cells of the intestinal epithelium, had been cultured in transwell plate inserts with the filters (with pores of 0.4 μm, BD Falcon with High Density, #353495) for 21 days, and then the integrity of the monolayer were estimated with Lucifer Yellow dye (Sigma-Aldrich, USA) by standard protocol. When setting the A→B transfer, solutions of test substances were added in a buffer with pH 6.5 (Hanks solution, 10 mM HEPES, 15 mM glucose solution) with the concentration of 10 μM into the upper chamber; the lower chamber was filled with a buffer with pH 7.4 (Hanks solution, 10 mM HEPES, 15 mM glucose solution, 1% BSA). When setting B→A transfer, the upper chamber was filled with the buffer with pH 6.5, and solutions of the test substances were added in the buffer with pH 7.4 at the concentration of 10 μM in the lower chamber. Propranolol was used as a control substance (as it has high permeability).
We used gradient elution (1 mL/min flow rate). We determined the areas of peaks corresponding to the compounds. On the basis of peak areas in the calibration standards we determined the concentration of compound in the initial solution and in the samples from the wells of the upper and lower chambers.
Papp, permeability through the cell layer, was calculated using the following formula:
Papp=(C(t)*V)/(C(0)*t*Area), where
Papp is the effective constant of permeability, m/s V is the volume of solution (0.8 ml in A→B test, 0.2 ml in B→A test), ml Area is the surface area of the membrane (0.33 cm^2), cm^2 t is the time of incubation (7200 sec), sec C(0) is the concentration of the initial solution, μM C(t) is the concentration of the solution after 2 hours (the concentration in the sample from the well of the lower chamber in A→B test; the concentration in the sample from the well of the top chamber in B→A test), μM
The value was calculated with the following formula:
efflux=Papp B-A/Papp A-B, where
Papp A-B is the value of the permeability in the direct test (A→B); Papp B-A is the value of the permeability in the backward test in (B→A).

Series [7] in a line: Chemical stability in artificial gastric fluid (SGF without enzymes). The settings on record: 10 μM in SGF without enzymes, pH=1.4, 37° C.

For `C=CC(=O)N1CCC[C@@H](n2nc(-c3ccc(-n4ccc(=O)c(C#N)c4)cc3)c3cncc(Cl)c32)C1` [BCD-BTK-208, (R)-1-(4-(1-(1-acryloylpiperidin-3-yl)-7-chloro-1H-pyrazolo[4,3-c]pyridin-3-yl)phenyl)-4-oxo-1,4-dihydropyridine-3-carbonitrile], the results for the 50% inhibitory concentration (IC50) in series [1] and in series [4] were 32.2 µM and 21.5 µM, respectively. In series [2], this compound registered a CC50 at 72 h of 112 µM. The “CC50 (HepG2)/IC50 (Mino)” value in series [3] is on record as 5.21. Moreover, in series [5], the “Amount of substance in the sample, % (stability in human blood plasma)” value (“Amount of substance in the sample, %” below) amounted to 91.4%.

For the compound `C=CC(=O)N1CCC[C@@H](n2nc(-c3ccc(C(=O)Nc4ccc(F)cn4)cc3)c3cncc(Cl)c32)C1` [BCD-BTK-212, (R)-4-(1-(1-acryloylpiperidin-3-yl)-7-chloro-1H-pyrazolo[4,3-c]pyridin-3-yl)-N-(5-fluoropyridin-2-yl)benzamide], the IC50 came out at 14.8 µM in series [1] and 3.5 µM in series [4]. Besides, in series [2], it took 28.1 µM to reach half-maximal cytotoxicity (CC50 at 72 h). Moreover, in series [3], the “CC50 (HepG2)/IC50 (Mino)” value is given as 8.01. For the same compound, the “Amount of substance in the sample, %” value in series [5] was found to be 90.8%.

In series [1], `C=CC(=O)N1CCC[C@@H](n2nc(-c3ccc(C(=O)Nc4cc(C(F)(F)CC)ccn4)cc3)c3c(N)ncc(Cl)c32)C1` [BCD-BTK-231, (R)-4-(1-(1-acryloylpiperidin-3-yl)-4-amino-7-chloro-1H-pyrazolo[4,3-c]pyridin-3-yl)-N-(4-(1,1-difluoropropyl)pyridin-2-yl)benzamide] displayed an IC50 of 3.39 µM. The compound also returned a cytotoxic concentration (CC50) at 72 h in series [2] of 9.08 µM. Also, in series [3], the “CC50 (HepG2)/IC50 (Mino)” value turned out to be 4.01. In series [6], the apical-to-basolateral permeability (Papp A→B) at 2 h, 10 μM was 9.8 ×10⁻⁶ cm/s; the apparent permeability from basolateral to apical (Papp B→A) at 2 h, 10 μM came to 1.84 ×10⁻⁶ cm/s; the efflux ratio at 2 h, 10 μM came out at 0.19. The IC50 in series [4] was 2.26 µM. Also, the “Amount of substance in the sample, %” value in series [5] is 93.1%. Besides, the “Amount of substance in the sample in % (chemical stability)” value (from here on “Amount of substance in the sample in %”) in series [7] is 100%.

Consider `C=CC(=O)N1CCC[C@@H](n2nc(-c3ccc(Oc4ccncc4C#N)cc3)c3c(N)ncc(Cl)c32)C1` [BCD-BTK-232, (R)-4-(4-(1-(1-acryloylpiperidin-3-yl)-4-amino-7-chloro-1H-pyrazolo[4,3-c]pyridin-3-yl)phenoxy)nicotinonitrile], for which, in series [1], the midpoint of inhibition, the IC50, lay at 10.8 µM. The midpoint of cytotoxicity in series [2], the CC50 at 72 h, lay at 31.1 µM. Further, the “CC50 (HepG2)/IC50 (Mino)” value in series [3] is 2.04. In series [6], the Papp A→B at 2 h, 10 μM came to 6.27 ×10⁻⁶ cm/s; the Papp B→A at 2 h, 10 μM worked out at 3.58 ×10⁻⁶ cm/s; the efflux ratio at 2 h, 10 μM came to 0.57. The IC50 in series [4] came to 15.3 µM. For the same compound, the “Amount of substance in the sample, %” value in series [5] is 88.6%. For the same compound, the “Amount of substance in the sample in %” value in series [7] worked out at 95.9%.

In turn, `CC#CC(=O)N1CC(Cn2nc(-c3ccc(Oc4ccncc4)cc3)c3cncc(Cl)c32)C1` [BCD-BTK-261, 1-(3-((7-chloro-3-(4-(pyridin-4-yloxy)phenyl)-1H-pyrazolo[4,3-c]pyridin-1-yl)methyl)azetidin-1-yl)but-2-yn-1-one] gave an IC50 in series [1] of 5.01 µM. The compound further displayed a CC50 at 72 h in series [2] of 8.33 µM. Further, the “CC50 (HepG2)/IC50 (Mino)” value in series [3] turned out to be 1.95. In series [6], the Papp A→B at 2 h, 10 μM is 8.3 ×10⁻⁶ cm/s; the apparent permeability from basolateral to apical (Papp B→A) at 2 h, 10 μM was determined as 0.95 ×10⁻⁶ cm/s; the efflux ratio at 2 h, 10 μM was 0.11. In series [4], this compound displayed an IC50 of 4.27 µM. Moreover, the “Amount of substance in the sample, %” value in series [5] is given as 100.0%. Besides, the “Amount of substance in the sample in %” value in series [7] is given as 100%.

Consider `C=CC(=O)N1CCC[C@H]1Cn1nc(-c2ccc(Oc3ccncc3)cc2)c2cncc(Cl)c21` [BCD-BTK-263, (S)-1-(2-((7-chloro-3-(4-(pyridin-4-yloxy)phenyl)-1H-pyrazolo[4,3-c]pyridin-1-yl)methyl)pyrrolidin-1-yl)prop-2-en-1-one], for which the concentration for half-maximal inhibition (IC50) in series [1] came to 35.2 µM; in series [4], 20.6 µM. For the same compound, the CC50 at 72 h in series [2] is above 50 µM. Moreover, the “CC50 (HepG2)/IC50 (Mino)” value in series [3] is on record as above 2.42. In series [5], the “Amount of substance in the sample, %” value came out at 86.7%. Also, the “Amount of substance in the sample in %” value in series [7] was determined as 100%.

In the case of `CC#CC(=O)N1CC[C@@H](n2nc(-c3ccc(Oc4ccncc4)cc3)c3cncc(Cl)c32)C1` [BCD-BTK-265, (R)-1-(3-(7-chloro-3-(4-(pyridin-4-yloxy)phenyl)-1H-pyrazolo[4,3-c]pyridin-1-yl)pyrrolidin-1-yl)but-2-yn-1-one], the figures for the IC50 in series [1] and in series [4] were 16.6 µM and 7.91 µM, respectively. In series [2], it took 16.5 µM to reach half-maximal cytotoxicity (CC50 at 72 h). In addition, in series [3], the “CC50 (HepG2)/IC50 (Mino)” value came out at 2.09. In series [5], the “Amount of substance in the sample, %” value worked out at 81.7%. In addition, the “Amount of substance in the sample in %” value in series [7] was found to be 94.8%.

On to `CC#CC(=O)N1CC(Cn2nc(-c3ccc(C(=O)Nc4ccccn4)cc3)c3cncc(Cl)c32)C1` [BCD-BTK-267, 4-(1-((1-(but-2-ynoyl)azetidin-3-yl)methyl)-7-chloro-1H-pyrazolo[4,3-c]pyridin-3-yl)-N-(pyridin-2-yl)benzamide], for which the “Amount of substance in the sample, %” value in series [5] turned out to be 100.0%. Moreover, in series [7], the “Amount of substance in the sample in %” value is given as 100%.

For the compound `CC#CC(=O)N1CCC[C@@H]1Cn1nc(-c2ccc(C(=O)Nc3ccccn3)cc2)c2cncc(Cl)c21` [BCD-BTK-269, (R)-4-(1-((1-(but-2-ynoyl)pyrrolidin-2-yl)methyl)-7-chloro-1H-pyrazolo[4,3-c]pyridin-3-yl)-N-(pyridin-2-yl)benzamide], the “Amount of substance in the sample, %” value in series [5] was determined as 95.4%. The “Amount of substance in the sample in %” value in series [7] came to 100%.

Consider `C=CC(=O)N1CCC[C@@H](n2nc(-c3ccc(Oc4cncc(C(N)=O)c4)cc3)c3cncc(F)c32)C1` [BCD-BTK-274, (R)-5-(4-(1-(1-acryloylpiperidin-3-yl)-7-fluoro-1H-pyrazolo[4,3-c]pyridin-3-yl)phenoxy)nicotinamide], for which the IC50 in series [1] is above 100 µM; in series [4], 40.1 µM. Moreover, in series [2], the CC50 at 72 h was determined as 38 µM. The “CC50 (HepG2)/IC50 (Mino)” value in series [3] was determined as 0.95. Moreover, the “Amount of substance in the sample, %” value in series [5] is given as 91.3%. In addition, the “Amount of substance in the sample in %” value in series [7] is recorded as 100%.

On to `CC#CC(=O)N1CCC[C@@H](Cn2nc(-c3ccc(C(=O)Nc4ccccn4)cc3)c3cncc(Cl)c32)C1` [BCD-BTK-278, (R)-4-(1-((1-(but-2-ynoyl)piperidin-3-yl)methyl)-7-chloro-1H-pyrazolo[4,3-c]pyridin-3-yl)-N-(pyridin-2-yl)benzamide], for which, in series [5], the “Amount of substance in the sample, %” value stood at 96.2%. In addition, in series [7], the “Amount of substance in the sample in %” value came out at 100%.

As for `CC#CC(=O)N1CCC[C@H](Cn2nc(-c3ccc(C(=O)Nc4ccccn4)cc3)c3cncc(Cl)c32)C1` [BCD-BTK-283, (S)-4-(1-((1-(but-2-ynoyl)piperidin-3-yl)methyl)-7-chloro-1H-pyrazolo[4,3-c]pyridin-3-yl)-N-(pyridin-2-yl)benzamide], the “Amount of substance in the sample, %” value in series [5] is on record as 97.4%. For the same compound, in series [7], the “Amount of substance in the sample in %” value was found to be 100%.

As for `CC#CC(=O)N1CCC[C@@H](n2nc(-c3ccc(C(=O)Nc4ccccn4)cc3)c3cncc(Cl)c32)C1` [BCD-BTK-289, (R)-4-(1-(1-(but-2-ynoyl)piperidin-3-yl)-7-chloro-1H-pyrazolo[4,3-c]pyridin-3-yl)-N-(pyridin-2-yl)benzamide], the IC50 was 8.29 µM in series [1] and 10.2 µM in series [4]. In series [2], this compound gave a cytotoxic concentration (CC50) at 72 h of 18.8 µM. In addition, the “CC50 (HepG2)/IC50 (Mino)” value in series [3] is reported as 1.85. The “Amount of substance in the sample, %” value in series [5] is on record as 100.0%. The “Amount of substance in the sample in %” value in series [7] was determined as 100%.

(Values after patent US20190352276A1, “INHIBITORS OF BRUTON'S TYROSINE KINASE” (Joint Stock Company "Biocad", priority 2016, published 2019).)
